The results in this text go back to ChEMBL document CHEMBL4422697, “Structural Characterization of Cranberry Arabinoxyloglucan Oligosaccharides” (J Nat Prod, 2019).

Active and inactive are the calls of the source. No cut-off for these calls is given here.

In one data set the test system is T47D. The data set can be described thus: Cytotoxicity against human T47D cells assessed as reduction in cell viability at 10 to 100 uM after 48 hrs by sulforhodamine B assay. The format is cell-based.
The test system of another data set is Aspergillus fumigatus. The data set can be described thus: Growth inhibition of Aspergillus fumigatus ATCC 204305 at 50 ug/ml relative to control. It is filed as organism-based. The following applies: in vivo.
The subject of data set [1] is Staphylococcus aureus. The data set can be described thus: Growth inhibition of methicillin-[…] Staphylococcus aureus ATCC 33591 at 50 ug/ml relative to control. It is filed as organism-based. The following applies: in vivo.
Data set [2] relates to Staphylococcus aureus. Kind of data set: Growth inhibition of Staphylococcus aureus ATCC 29213 at 50 ug/ml relative to control. It is filed as organism-based. The following applies: in vivo.
The next data set has as its system Pseudomonas aeruginosa. Kind of data set: Growth inhibition of Pseudomonas aeruginosa ATCC 27853 at 50 ug/ml relative to control. The format is organism-based. The following applies: in vivo.
Data set [3] concerns Escherichia coli. The data set can be described thus: Antiadhesive activity against P-fimbriated Escherichia coli ATCC 700928 assessed as inhibition of bacterial adhesion to human HTB4 cells incubated for 30 mins in presence of [3H]uridine prior to infection measured after 1 hr by scintillation counting method. The format is functional, organism-based.
Another data set relates to Nakaseomyces glabratus. The data set can be described thus: Growth inhibition of Candida glabrata ATCC 90030 at 50 ug/ml relative to control. The format is organism-based. The conditions noted are these: in vivo.
Another data set deals with Pichia kudriavzevii. Kind of data set: Growth inhibition of Candida krusei ATCC 6258 at 50 ug/ml relative to control. The format is organism-based. The following applies: in vivo.
Data set [4] has as its system Escherichia coli. Kind of data set: Growth inhibition of Escherichia coli ATCC 35218 at 50 ug/ml relative to control. The format is organism-based. The conditions noted are these: in vivo.
The subject of a further data set is Leishmania donovani. Kind of data set: Growth inhibition of Leishmania donovani at 80 ug/ml relative to control. The format is organism-based. The following applies: in vivo.
Data set [5] concerns Mycobacterium intracellulare. The data set can be described thus: Growth inhibition of Mycobacterium intracellulare ATCC 23068 at 50 ug/ml relative to control. The conditions noted are these: in vivo. The format is organism-based.
The next data set relates to Candida albicans. Kind of data set: Growth inhibition of Candida albicans ATCC 90028 at 50 ug/ml relative to control. The conditions noted are these: in vivo. It is filed as organism-based.
The subject of a further data set is Plasmodium falciparum. The data set can be described thus: Growth inhibition of Plasmodium falciparum D6 at 15.9 ug/ml relative to control. The format is organism-based. The following applies: in vivo.
The test system of another data set is Cryptococcus neoformans. Kind of data set: Growth inhibition of Cryptococcus neoformans ATCC 90113 at 50 ug/ml relative to control. The following applies: in vivo. It is filed as organism-based.
A further data set concerns MDA-MB-231. Kind of data set: Cytotoxicity against human MDA-MB-231 cells assessed as reduction in cell viability at 10 to 100 uM after 48 hrs by sulforhodamine B assay. It is filed as cell-based. The conditions noted are these: mda-mb-231, 48 h.

Consider `OC[C@@H]1O[C@@H](O[C@H]2[C@@H](OC[C@H]3O[C@@H](O)[C@H](O)[C@@H](O)[C@@H]3O[C@@H]3O[C@H](CO)[C@@H](O[C@@H]4O[C@H](COC5OC[C@@H](O)[C@H](O)[C@H]5O[C@@H]5O[C@@H](CO)[C@H](O)[C@H]5O)[C@@H](O[C@@H]5O[C@H](CO)[C@@H](O)[C@H](O)[C@H]5O)[C@H](O)[C@H]4O)[C@H](O)[C@H]3O)OC[C@@H](O)[C@@H]2O)[C@H](O)[C@H]1O` (single isomer, unassigned), for which the Activity result in the data set with T47D and with MDA-MB-231 was “Non-Toxic” throughout. Further, the “growth inhibition (GI)” value in the data set on Aspergillus fumigatus, in the data set on Staphylococcus aureus [1], in the data set with Staphylococcus aureus [2], in the data set with Pseudomonas aeruginosa, in the data set on Nakaseomyces glabratus and with Pichia kudriavzevii was under 50% each time. The “growth inhibition (GI)” value (with Escherichia coli [4]; in the data set with Leishmania donovani; in data set [5]; with Candida albicans; with Plasmodium falciparum; in the data set on Cryptococcus neoformans) was under 50% in each case. Also, in the data set on Escherichia coli [3], the inhibition result is “inactive”.
With `OC[C@@H]1O[C@@H](O[C@H]2[C@@H](OC[C@H]3O[C@@H](O)[C@H](O)[C@@H](O)[C@@H]3O[C@@H]3O[C@H](CO)[C@@H](O[C@@H]4O[C@H](COC5OC[C@@H](O)[C@H](O)[C@H]5O)[C@@H](O[C@@H]5O[C@H](CO)[C@@H](O)[C@H](O)[C@H]5O)[C@H](O)[C@H]4O)[C@H](O)[C@H]3O)OC[C@@H](O)[C@@H]2O)[C@H](O)[C@H]1O` (single isomer, unassigned), the Activity entry in the data set with T47D and with MDA-MB-231 was “Non-Toxic” throughout. Also, the “growth inhibition (GI)” value with Aspergillus fumigatus, in the data set on Staphylococcus aureus [1], with Staphylococcus aureus [2], in the data set on Pseudomonas aeruginosa, with Nakaseomyces glabratus and with Pichia kudriavzevii was under 50% each time. Besides, the “growth inhibition (GI)” value (in the data set with Escherichia coli [4]; with Leishmania donovani; in data set [5]; with Candida albicans; with Plasmodium falciparum; in the data set on Cryptococcus neoformans) was under 50% throughout. In addition, in the data set on Escherichia coli [3], the inhibition result was “inactive”.
